How the values were obtained:
Type in all cases: biochemical
PDE1A = PDE1A (Homo sapiens (Human), UniProt P54750); experiment: PDE1 inhibition assay (PDE1A), SPA; conditions: 15 nM tritium labelled cAMP
Method: (§1) Reactions were initiated by addition of the cyclic nucleotide substrate, and reactions were allowed to proceed for 1 hr at room temperature before being terminated through mixing with 20 μL (0.2 mg) yttrium silicate SPA beads (PerkinElmer). The beads were allowed to settle for 1 hr in the dark before the plates were counted in a Wallac 1450 Microbeta counter.

PDE1B = PDE1B (Homo sapiens (Human), UniProt Q01064); experiment: PDE1 inhibition assay (PDE1B), SPA; conditions: 15 nM tritium labelled cAMP
Method: Reactions were initiated by addition of the cyclic nucleotide substrate, and reactions were allowed to proceed for 1 hr at room temperature before being terminated through mixing with 20 μL (0.2 mg) yttrium silicate SPA beads (PerkinElmer).

PDE1C = PDE1C (Homo sapiens (Human), UniProt Q14123); experiment: PDE1 inhibition assay (PDE1C), SPA; conditions: 15 nM tritium labelled cAMP
Method: as §1

PDE9 = PDE9 (Homo sapiens (Human), UniProt O76083); experiment: PDE9 inhibition assay, SPA; conditions: 10 microM compound; 10 nM 3H-cAMP;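 further: enzyme reaction incubated for 1 h, then stopped by adding yttrium silicate scintillation proximity beads for the read-out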
Chain of PDE9 (O76083 whole entry): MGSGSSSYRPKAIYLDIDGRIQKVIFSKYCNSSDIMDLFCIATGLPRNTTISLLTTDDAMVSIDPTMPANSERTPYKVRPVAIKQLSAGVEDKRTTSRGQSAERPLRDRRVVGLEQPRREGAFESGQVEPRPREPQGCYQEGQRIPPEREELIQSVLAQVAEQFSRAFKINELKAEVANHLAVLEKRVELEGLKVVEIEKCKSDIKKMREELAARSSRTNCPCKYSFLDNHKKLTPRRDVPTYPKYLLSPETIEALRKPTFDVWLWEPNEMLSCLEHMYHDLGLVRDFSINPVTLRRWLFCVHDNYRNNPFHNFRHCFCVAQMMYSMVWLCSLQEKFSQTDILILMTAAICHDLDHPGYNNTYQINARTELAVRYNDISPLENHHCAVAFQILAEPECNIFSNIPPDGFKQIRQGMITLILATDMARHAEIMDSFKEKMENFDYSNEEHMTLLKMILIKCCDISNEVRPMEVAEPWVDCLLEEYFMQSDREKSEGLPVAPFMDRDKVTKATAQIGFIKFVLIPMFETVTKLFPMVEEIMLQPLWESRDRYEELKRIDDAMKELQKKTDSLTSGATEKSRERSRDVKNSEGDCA
Method: Reactions are initiated by addition of the cyclic nucleotide substrate, and reactions are allowed to proceed for one hr at room temperature before being terminated through mixing with 15 μL 8 mg/mL yttrium silicate SPA beads (Amersham).
Following 1 hr incubation the reactions were terminated by addition of 15 uL 8 mg/mL yttrium silicate SPA beads (Amersham).

Chain of PDE1B (Q01064 whole entry): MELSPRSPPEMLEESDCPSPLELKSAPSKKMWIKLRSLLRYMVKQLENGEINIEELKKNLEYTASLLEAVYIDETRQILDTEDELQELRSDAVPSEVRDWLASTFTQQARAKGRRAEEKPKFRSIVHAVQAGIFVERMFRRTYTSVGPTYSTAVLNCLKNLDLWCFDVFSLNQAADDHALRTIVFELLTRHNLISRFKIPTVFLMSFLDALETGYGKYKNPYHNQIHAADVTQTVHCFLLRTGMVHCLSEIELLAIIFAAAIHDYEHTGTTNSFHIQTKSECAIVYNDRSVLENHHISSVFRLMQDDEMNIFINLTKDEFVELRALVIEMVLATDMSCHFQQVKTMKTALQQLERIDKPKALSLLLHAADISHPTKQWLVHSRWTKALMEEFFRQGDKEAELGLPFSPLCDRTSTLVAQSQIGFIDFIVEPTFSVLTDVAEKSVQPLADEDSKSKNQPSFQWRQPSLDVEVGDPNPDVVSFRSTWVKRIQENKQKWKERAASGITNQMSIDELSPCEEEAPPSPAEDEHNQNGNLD
Chain of PDE1A (P54750 whole entry): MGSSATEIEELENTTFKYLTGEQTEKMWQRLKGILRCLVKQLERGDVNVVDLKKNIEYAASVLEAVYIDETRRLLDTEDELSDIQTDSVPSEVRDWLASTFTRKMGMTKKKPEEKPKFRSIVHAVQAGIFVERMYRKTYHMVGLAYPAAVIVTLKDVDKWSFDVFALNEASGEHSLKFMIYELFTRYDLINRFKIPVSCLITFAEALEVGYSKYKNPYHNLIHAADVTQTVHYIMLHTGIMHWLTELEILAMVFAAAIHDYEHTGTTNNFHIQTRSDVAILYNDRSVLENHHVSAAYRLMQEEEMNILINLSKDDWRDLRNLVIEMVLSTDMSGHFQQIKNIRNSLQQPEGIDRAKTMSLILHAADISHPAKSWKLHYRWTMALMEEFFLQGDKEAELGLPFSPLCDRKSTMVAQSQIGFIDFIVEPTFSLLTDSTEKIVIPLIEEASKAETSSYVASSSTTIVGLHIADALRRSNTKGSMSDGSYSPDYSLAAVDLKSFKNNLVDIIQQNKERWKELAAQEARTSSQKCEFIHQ
Chain of PDE1C (Q14123 whole entry): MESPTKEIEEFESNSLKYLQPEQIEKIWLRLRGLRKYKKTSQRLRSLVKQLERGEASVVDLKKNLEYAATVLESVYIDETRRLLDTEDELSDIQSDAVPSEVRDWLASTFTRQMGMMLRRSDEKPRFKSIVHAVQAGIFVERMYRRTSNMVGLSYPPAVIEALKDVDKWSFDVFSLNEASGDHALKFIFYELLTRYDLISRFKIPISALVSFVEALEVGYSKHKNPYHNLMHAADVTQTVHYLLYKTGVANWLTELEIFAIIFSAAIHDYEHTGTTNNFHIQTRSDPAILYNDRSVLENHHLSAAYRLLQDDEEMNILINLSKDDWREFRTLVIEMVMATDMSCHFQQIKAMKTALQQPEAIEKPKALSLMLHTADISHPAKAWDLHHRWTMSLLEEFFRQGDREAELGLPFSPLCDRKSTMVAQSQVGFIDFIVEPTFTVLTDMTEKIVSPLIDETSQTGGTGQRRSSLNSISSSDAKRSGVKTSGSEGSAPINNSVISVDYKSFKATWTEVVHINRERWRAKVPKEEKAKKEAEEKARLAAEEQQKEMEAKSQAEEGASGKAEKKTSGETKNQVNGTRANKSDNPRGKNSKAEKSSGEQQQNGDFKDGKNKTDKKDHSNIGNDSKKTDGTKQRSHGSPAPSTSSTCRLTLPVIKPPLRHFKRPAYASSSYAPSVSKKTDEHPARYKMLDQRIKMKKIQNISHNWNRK

Compound | IC50 (PDE1A) [nM] | IC50 (PDE1B) [nM] | IC50 (PDE1C) [nM] | inhibition at 10 µM (PDE9) [%] | inhibition at 10 µM (PDE1A; read-out: PDE1A, % inhibition @10 μM, 10 μM compound) [%]
COc1ccc(Cn2c(C)cc3c(cnn3[C@@H]3CCO[C@H]3C)c2=O)cc1 (relative stereo) [Example 26, 5-[(4-methoxyphenyl)methyl]-6-methyl-1-[(trans)-2-methyltetrahydrofuran-3-yl]pyrazolo[4,3-c]pyridin-4-one] | 206 | 83 | 345 | 8 | –
COc1ccc(Cn2c(C)cc3c(cnn3[C@@H]3CCO[C@@H]3C)c2=O)cc1 (relative stereo) [Example 27, 5-[(4-methoxyphenyl)methyl]-6-methyl-1-[(cis)-2-methyltetrahydrofuran-3-yl]pyrazolo[4,3-c]pyridin-4-one] | 1300 | 179 | 686 | 13 | –
O=c1c2cnn(C3CCOCC3)c2nc(Cc2ccccc2)n1CC1CCCCC1 [Example 1, 6-benzyl-5-(cyclohexylmethyl)-1-(tetrahydro-2H-pyran-4-yl)-1,5-dihydro-4H-pyrazolo[3,4-d]pyrimidin-4-one] | 349 | 320 | 120 | 51 | –
COc1ccc(Cn2c(C)nc3c(cnn3C3CCOCC3)c2=O)cc1 [Example 2, 5-(4-methoxybenzyl)-6-methyl-1-(tetrahydro-2H-pyran-4-yl)-1H-pyrazolo[3,4-d]pyrimidin-4(5H)-one] | 132 | 62 | 74 | 10 | –
Cc1nc2c(cnn2C2CCOCC2)c(=O)n1CC1CCCCC1 [Example 3, 5-(cyclohexylmethyl)-6-methyl-1-tetrahydropyran-4-yl-pyrazolo[3,4-d]pyrimidin-4-one] | 172 | 103 | 29 | 29 | –
CCCn1ncc2c(=O)n(Cc3ccc(OC)cc3)c(C)nc21 [Example 4, 5-[(4-methoxyphenyl)methyl]-6-methyl-1-propyl-pyrazolo[3,4-d]pyrimidin-4-one] | 108 | 68 | 72 | 13 | –
CCCn1ncc2c(=O)n(CC3CCCCC3)c(C)nc21 [Example 5, 5-(cyclohexylmethyl)-6-methyl-1-propyl-pyrazolo[3,4-d]pyrimidin-4-one] | 111 | 31 | 36 | -16 | –
CCc1nc2c(cnn2C2CCOCC2)c(=O)n1Cc1ccc(OC)cc1 [Example 6, 6-ethyl-5-[(4-methoxyphenyl)methyl]-1-tetrahydropyran-4-yl-pyrazolo[3,4-d]pyrimidin-4-one] | 107 | 80 | 140 | 2 | –
COCc1nc2c(cnn2C2CCOCC2)c(=O)n1Cc1ccc(OC)cc1 [Example 7, 6-(methoxymethyl)-5-[(4-methoxyphenyl)methyl]-1-tetrahydropyran-4-yl-pyrazolo[3,4-d]pyrimidin-4-one] | 325 | 181 | 345 | -12 | –
COc1ccc(Cn2c(C(C)C)nc3c(cnn3C3CCOCC3)c2=O)cc1 [Example 8, 6-isopropyl-5-[(4-methoxyphenyl)methyl]-1-tetrahydropyran-4-yl-pyrazolo[3,4-d]pyrimidin-4-one] | 751 | 211 | 1320 | 7 | –
COc1ccc(Cn2c(CC3COC3)nc3c(cnn3C3CCOCC3)c2=O)cc1 [Example 9, 5-[(4-methoxyphenyl)methyl]-6-(oxetan-3-ylmethyl)-1-tetrahydropyran-4-yl-pyrazolo[3,4-d]pyrimidin-4-one] | – | 58 | 165 | 12 | –
Cc1cc2c(cnn2C2CCOCC2)c(=O)n1Cc1cccc(F)c1 [Example 10, 5-[(3-fluorophenyl)methyl]-6-methyl-1-tetrahydropyran-4-yl-pyrazolo[4,3-c]pyridin-4-one] | 1070 | – | 149 | 3 | –
Cc1cc2c(cnn2C2CCOCC2)c(=O)n1Cc1ccccc1F [Example 11, 5-[(2-fluorophenyl)methyl]-6-methyl-1-tetrahydropyran-4-yl-pyrazolo[4,3-c]pyridin-4-one] | 589 | – | 61 | 12 | –
Cc1cc2c(cnn2C2CCOCC2)c(=O)n1Cc1ccc(Cl)cc1 [Example 12, 5-[(4-chlorophenyl)methyl]-6-methyl-1-tetrahydropyran-4-yl-pyrazolo[4,3-c]pyridin-4-one] | 127 | – | 419 | 16 | –
Cc1cc2c(cnn2C2CCOCC2)c(=O)n1Cc1ccccc1 [Example 13, 5-benzyl-6-methyl-1-tetrahydropyran-4-yl-pyrazolo[4,3-c]pyridin-4-one] | 1260 | – | 135 | -18 | –
Cc1cc2c(cnn2C2CCOCC2)c(=O)n1Cc1cccc(Cl)c1 [Example 14, 5-[(3-chlorophenyl)methyl]-6-methyl-1-tetrahydropyran-4-yl-pyrazolo[4,3-c]pyridin-4-one] | 1300 | 413 | 95 | -15 | –
Cc1cc2c(cnn2C2CCOCC2)c(=O)n1Cc1ccc(F)cc1 [Example 15, 5-[(4-fluorophenyl)methyl]-6-methyl-1-tetrahydropyran-4-yl-pyrazolo[4,3-c]pyridin-4-one] | 1240 | 258 | 204 | -13 | –
Cc1ccc(Cn2c(C)cc3c(cnn3C3CCOCC3)c2=O)cc1 [Example 16, 6-methyl-5-(p-tolylmethyl)-1-tetrahydropyran-4-yl-pyrazolo[4,3-c]pyridin-4-one] | 400 | 71 | 496 | -1 | –
Cc1cc2c(cnn2C2CCOCC2)c(=O)n1Cc1ccc2c(c1)OCO2 [Example 17, 5-(1,3-benzodioxol-5-ylmethyl)-6-methyl-1-tetrahydropyran-4-yl-pyrazolo[4,3-c]pyridin-4-one] | 429 | 154 | 662 | -2 | –
COc1ccc(Cn2c(C)cc3c(cnn3C3CCOCC3)c2=O)cn1 [Example 18, 5-[(6-methoxy-3-pyridyl)methyl]-6-methyl-1-tetrahydropyran-4-yl-pyrazolo[4,3-c]pyridin-4-one] | 738 | – | 1170 | 9 | –
COc1ccc(Cn2c(C)cc3c(cnn3C3CCOCC3)c2=O)cc1 [Example 19, 5-(4-methoxybenzyl)-6-methyl-1-(tetrahydro-2H-pyran-4-yl)-1,5-dihydro-4H-pyrazolo[4,3-c]pyridin-4-one] | 184 | – | 171 | 19 | –
CCCn1ncc2c(=O)n(Cc3ccc(OC)cc3)c(C)cc21 [Example 20, 5-(4-methoxybenzyl)-6-methyl-1-propyl-1,5-dihydro-4H-pyrazolo[4,3-c]pyridin-4-one] | 290 | 82 | 233 | 19 | –
COc1ccc(Cn2c(C)cc3c(cnn3C(C)C)c2=O)cc1 [Example 21, 1-isopropyl-5-[(4-methoxyphenyl)methyl]-6-methyl-pyrazolo[4,3-c]pyridin-4-one] | 49 | 37 | 134 | -14 | –
COc1ccc(Cn2c(C)cc3c(cnn3C3CCOC3)c2=O)cc1 (stereo not drawn) [Example 22, 5-[(4-methoxyphenyl)methyl]-6-methyl-1-tetrahydrofuran-3-yl-pyrazolo[4,3-c]pyridin-4-one] | 1690 | 569 | 1200 | 8 | –
COc1ccc(Cn2c(C)cc3c(cnn3C3CC3)c2=O)cc1 [Example 23, 1-cyclopropyl-5-[(4-methoxyphenyl)methyl]-6-methyl-pyrazolo[4,3-c]pyridin-4-one] | 543 | 255 | 975 | -6 | –
CCn1ncc2c(=O)n(Cc3ccc(OC)cc3)c(C)cc21 [Example 24, 1-ethyl-5-[(4-methoxyphenyl)methyl]-6-methyl-pyrazolo[4,3-c]pyridin-4-one] | 1120 | 329 | 1330 | 19 | –
COc1ccc(Cn2c(C)cc3c(cnn3C3CCCOC3)c2=O)cc1 (stereo not drawn) [Example 25, 5-[(4-methoxyphenyl)methyl]-6-methyl-1-tetrahydropyran-3-yl-pyrazolo[4,3-c]pyridin-4-one] | 825 | – | 644 | 8 | –
COc1ccc(Cn2c(C)cc3c(cnn3C3COC3)c2=O)cc1 [Example 28, 5-(4-methoxybenzyl)-6-methyl-1-(oxetan-3-yl)-1,5-dihydro-4H-pyrazolo[4,3-c]pyridin-4-one] | – | 704 | 2180 | 14 | 63
COc1ccc(Cn2c(C)cc3c(cnn3C3(C)CCOCC3)c2=O)cc1 [Example 29, 5-(4-methoxybenzyl)-6-methyl-1-(4-methyltetrahydro-2H-pyran-4-yl)-1,5-dihydro-4H-pyrazolo[4,3-c]pyridin-4-one] | 119 | 87 | 174 | 26 | –

From patent US11104680B2, “1,5-dihydro-4H-pyrazolo[3,4-d]pyrimidin-4-ones and 1,5-dihydro-4H-pyrazolo[4,3-c]pyridin-4-ones as PDE1 inhibitors” (H. Lundbeck A/S, priority 2016, dated 2021)
